# In patent US20160145247A1, “Aminomethyl-Biaryl Derivatives Complement Factor D inhibitors and uses thereof” (NOVARTIS AG, priority 2013, published 2016):
# Target: T1, factor D (Homo sapiens, UniProt P00746)
# T1 construct: made in house; host or cells: E. coli
# Experiment: factor D inhibition assay of Biological Example 2
# Assay type: biochemical
# T1 sequence (P00746 26-253): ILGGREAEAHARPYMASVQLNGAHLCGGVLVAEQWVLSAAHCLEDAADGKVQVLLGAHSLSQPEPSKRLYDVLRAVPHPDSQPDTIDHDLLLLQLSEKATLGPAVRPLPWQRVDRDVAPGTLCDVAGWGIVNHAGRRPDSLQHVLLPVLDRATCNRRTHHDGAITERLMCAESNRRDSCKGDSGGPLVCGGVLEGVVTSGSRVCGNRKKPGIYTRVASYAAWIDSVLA
row,SMILES,IC50 [nM]
1,"NC(=O)C(N)c1cccc(-c2cccc(COc3ccccc3CC(=O)O)c2)c1 (racemic) [Example 189, (±)-2-(2-((3′-(1,2-Diamino-2-oxoethyl)-[1,1′-biphenyl]-3-yl)methoxy)phenyl)acetic acid]",1110
2,"N[C@H](CO)c1cccc(-c2cc(COc3ccccc3CC(=O)O)cc(C(O)C3CCCCC3)c2)c1 (single isomer, unassigned) [116-I b) (tr = 4.0 min)]",26
3,"N[C@H](CO)c1cccc(-c2cc(COc3ccccc3CC(=O)O)cc(C(O)C3CCCCC3)c2)c1 (single isomer, unassigned) [116-I b) (tr = 6.3 min)]",24
4,"NCc1cccc(-c2ccc3c(c2)C(Oc2ccccc2CC(=O)O)CCC3)c1 (single isomer, unassigned) [175 b) (tr = 9.5 min), (−) or (+)-(2-((7-(3-(aminomethyl)phenyl)-1,2,3,4-tetrahydronaphthalen-1-yl)oxy)phenyl)acetic acid]",250
5,"NCc1cccc(-c2ccc3c(c2)C(Oc2ccccc2CC(=O)O)CCO3)c1 (single isomer, unassigned) [177 b) (tr = 8.8 min), (−) or (+)-2-(2-((6-(3-(aminomethyl)phenyl)chroman-4-yl)oxy)phenyl)acetic acid]",180
6,"NC(CF)c1cccc(-c2cc(COc3ccccc3CC(=O)O)cc(CN3CCOCC3)c2)c1F (single isomer, unassigned) [Example 217-D, (+) or (−)-2-(2-((3′-(1-Amino-2-fluoroethyl)-2′-fluoro-5-(morpholinomethyl)-[1,1′-biphenyl]-3-yl)methoxy)phenyl)acetic acid]",63
7,"NC(CF)c1cccc(-c2cccc(COc3ccccc3CC(=O)O)c2)c1 (single isomer, unassigned; (-)) [Example 190-B (−), (−)-2-(2-((3′-(1-amino-2-fluoroethyl)-[1, 1′-biphenyl]-3-yl)methoxy)phenyl)acetic acid]",213
8,"NCc1cccc(-c2cccc(C(=O)Nc3ccccc3CC(N)=O)c2)c1 [Example 3-B, N-(2-(2-Amino-2-oxoethyl)phenyl)-3′-(aminomethyl)-[1,1′-biphenyl]-3-carboxamide]",80200
9,"COC(=O)Cc1ccccc1NC(=O)c1cccc(-c2cc(CN)ccc2F)c1 [Example 4-A, Methyl 2-(2-(5′-(aminomethyl)-2′-fluoro-[1,1′-biphenyl]-3-ylcarboxamido)phenyl)acetate]",33100
10,"NCc1ccc(F)c(-c2cccc(C(=O)Nc3ccccc3CC(=O)O)c2)c1 [Example 4-B, 2-(2-(5′-(Aminomethyl)-2′-fluoro-[1,1′-biphenyl]-3-ylcarboxamido)phenyl)acetic acid]",4600
11,"CC(=O)Nc1cc(C(=O)Nc2ccccc2CC(=O)O)cc(-c2cccc(CN)c2)c1 [Example 5, 2-(2-(5-Acetamido-3′-(aminomethyl)-[1,1′-biphenyl]-3-ylcarboxamido)phenyl)acetic acid]",45
12,"NCc1cc(F)cc(-c2cccc(C(=O)Nc3ccccc3CC(=O)O)c2)c1 [Example 6-B, 2-(2-(3′-(Aminomethyl)-5′-fluoro-[1,1′-biphenyl]-3-ylcarboxamido)phenyl)acetic acid]",106
13,"CNC(=O)c1cc(C(=O)Nc2ccccc2CC(=O)O)cc(-c2cccc(CN)c2)c1 [Example 7-D, 2-(2-(3′-(Aminomethyl)-5-(methylcarbamoyl)-[1,1′-biphenyl]-3-ylcarboxamido)phenyl)acetic acid]",244
14,"COC(=O)Cc1ccccc1NC(=O)c1ccc(OC)c(-c2cccc(CN)c2)c1 [Example 8-A, Methyl 2-(2-(3′-(aminomethyl)-6-methoxy-[1,1′-biphenyl]-3-ylcarboxamido)phenyl)acetate]",5050
15,"COc1ccc(C(=O)Nc2ccccc2CC(=O)O)cc1-c1cccc(CN)c1 [Example 8-B, 2-(2-(3′-(Aminomethyl)-6-methoxy-[1,1′-biphenyl]-3-ylcarboxamido)phenyl)acetic acid]",353
16,COc1ccc(C(=O)Nc2ccccc2CC(=O)O)cc1-c1cc(F)cc(CN)c1 [Example 9],71
17,"N=C(N)c1cccc(-c2cccc(C(=O)Nc3ccccc3CC(=O)O)c2)c1 [Example 10-B, 2-(2-(3′-Carbamimidoyl-[1,1′-biphenyl]-3-ylcarboxamido)phenyl)acetic acid]",396
18,"NCc1cc(F)cc(-c2cc(Br)cc(C(=O)Nc3ccccc3CC(=O)O)c2)c1 [Example 12, 2-(2-(3′-(Aminomethyl)-5-bromo-5′-fluoro-[1,1′-biphenyl]-3-ylcarboxamido)phenyl)acetic acid]",80

# Stronger by IC50, values ahead:
row,IC50 [nM],SMILES
1,17,"NCc1cc(F)cc(-c2cc(C(=O)Nc3ccccc3CC(=O)O)cc(-c3cnoc3)c2)c1 [Example 11-D, 2-(2-(3′-(Aminomethyl)-5′-fluoro-5-(isoxazol-4-yl)-[1,1′-biphenyl]-3-ylcarboxamido)phenyl)acetic acid]"
2,15,"C[C@@H](N)c1cccc(-c2cc(COc3ccccc3CC(=O)O)cc(C(O)C(F)(F)F)c2)c1 (single isomer, unassigned) [116-H b) (tr = 4.6 min)]"
3,15,COc1ccc(C)c(Nc2cc(C(=O)Nc3ccccc3CC(=O)O)cc(-c3cc(F)cc(CN)c3)c2)c1 [Example 14-A]
4,13,"CC(O)c1cc(COc2ccccc2CC(=O)O)cc(-c2cccc([C@H](N)CO)c2)c1 (single isomer, unassigned) [116-E b) (tr = 5.7 min)]"
5,11,"CC(O)c1cc(COc2ccccc2CC(=O)O)cc(-c2cccc([C@H](N)CO)c2)c1 (single isomer, unassigned) [116-E b) (tr = 3.8 min)]"
6,11,"N[C@H](CO)c1cccc(-c2cc(COc3ccccc3CC(=O)O)cc(C(O)C(F)(F)F)c2)c1 (single isomer, unassigned) [116-G b) (tr = 2.1 min)]"
7,11,NCc1cc(F)cc(-c2cc(NCc3ccncc3)cc(C(=O)Nc3ccccc3CC(=O)O)c2)c1 [Example 14-B]
8,10,"COCc1cc(COc2ccccc2CC(=O)O)cc(-c2cccc(C(N)CF)c2F)c1 (racemic) [Example 205-B, (±)-2-(2-((3′-(1-Amino-2-fluoroethyl)-2′-fluoro-5-(methoxymethyl)-[1,1′-biphenyl]-3-yl)methoxy)phenyl)acetic acid]"
9,10,"C[C@@H](N)c1cccc(-c2cc(COc3ccccc3CC(=O)O)cc(C(O)C(F)(F)F)c2)c1 (single isomer, unassigned) [116-H b) (tr = 3.0 min)]"
10,9,"N[C@H](CO)c1cccc(-c2cc(COc3ccccc3CC(=O)O)cc(C(O)C(F)(F)F)c2)c1 (single isomer, unassigned) [116-G b) (tr = 3.4 min)]"
11,9,"NC(CF)c1cccc(-c2cccc(COc3ccccc3CC(=O)O)c2)c1 (single isomer, unassigned; (+)) [Example 190-B (+), (+)-2-(2-((3′-(1-amino-2-fluoroethyl)-[1, 1′-biphenyl]-3-yl)methoxy)phenyl)acetic acid]"
12,9,"NCc1cc(F)cc(-c2cc(Nc3ccccc3)cc(C(=O)Nc3ccccc3CC(=O)O)c2)c1 [Example 13-B, 2-(2-(3′-(Aminomethyl)-5′-fluoro-5-(phenylamino)-[1,1′-biphenyl]-3-ylcarboxamido)phenyl)acetic acid]"
13,6,"NCc1cccc(-c2cccc(COc3ccccc3C(NC(=O)C3CC3c3ccccc3)C(=O)O)c2)c1 (single isomer, unassigned) [Example 297-B, 2-(2-((3′-(aminomethyl)-[1,1′-biphenyl]-3-yl)methoxy)phenyl)-2-(2-phenylcyclopropanecarboxamido)acetic acid]"
14,6,"NC(CF)c1cccc(-c2cc(COc3ccccc3CC(=O)O)cc(OC[C@H]3CCCO3)c2)c1F (single isomer, unassigned; (+)) [Example 212-B]"
15,6,"NC(CF)c1cccc(-c2cc(COc3ccccc3CC(=O)O)cc(OC[C@H]3CCCO3)c2)c1F (single isomer, unassigned; (-)) [Example 212-A]"
16,5,"NC(CF)c1cccc(-c2cc(COc3ccccc3CC(=O)O)cc(OCC3CC3)c2)c1F (racemic) [Example 206, (±)-2-(2-((3′-(1-Amino-2-fluoroethyl)-5-(cyclopropylmethoxy)-2′-fluoro-[1,1′-biphenyl]-3-yl)methoxy)phenyl)acetic acid]"
17,5,"NCc1cccc(-c2cc(COc3ccccc3CC(=O)O)cc(C(N)C(F)(F)F)c2)c1 (racemic) [Example 207-B, (±)-2-(2-((5-(1-Amino-2,2,2-trifluoroethyl)-3′-(aminomethyl)-[1,1′-biphenyl]-3-yl)methoxy)phenyl)acetic acid]"
18,5,Cn1ccc(CNc2cc(C(=O)Nc3ccccc3CC(=O)O)cc(-c3cc(F)cc(CN)c3)c2)n1 [Example 14-C]
19,4,"NCc1cccc(-c2ccc3c(c2)C(Oc2ccccc2CC(=O)O)CCO3)c1 (single isomer, unassigned) [177 b) (tr = 3.2 min), (+) or (−)-2-(2-((6-(3-(aminomethyl)phenyl)chroman-4-yl)oxy)phenyl)acetic acid]"
20,4,"N[C@H](CO)c1cccc(-c2cc(COc3ccccc3CC(=O)O)c(F)c(NCC3CCCO3)c2)c1 (stereo partly drawn) [155 b), 2-(2-((3′-((S)-1-Amino-2-hydroxyethyl)-4-fluoro-5-(((tetrahydrofuran-2-yl)methyl)amino)-[1,1′-biphenyl]-3-yl)methoxy)phenyl)acetic acid]"
21,3,"NCc1cccc(-c2ccc3c(c2)C(Oc2ccccc2CC(=O)O)CCC3)c1 (single isomer, unassigned) [175 b) (tr = 4.1 min), (+) or (−)-(2-((7-(3-(aminomethyl)phenyl)-1,2,3,4-tetrahydronaphthalen-1-yl)oxy)phenyl)acetic acid]"
22,3,"NCc1cccc(-c2cc(N)c(F)c(COc3ccccc3CC(=O)O)c2)c1 [154-C a), 2-(2-((5-Amino-3′-(aminomethyl)-4-fluoro-[1,1′-biphenyl]-3-yl)methoxy)phenyl)acetic acid]"
23,3,"Nc1cc(-c2cccc([C@H](N)CO)c2)cc(COc2ccccc2CC(=O)O)c1F [155 a), (S)-2-(2-((5-Amino-3′-(1-amino-2-hydroxyethyl)-4-fluoro-[1,1′-biphenyl]-3-yl)methoxy)phenyl)acetic acid]"
